From paper PMC8587849, “Antimicrobial and Anticancer Application of Silver(I) Dipeptide Complexes” (Molecules, 2021)
Where two headings read alike, the source gives them in different places. Where a SMILES comes first, the peptide text is derived from it.

Key:
MCF-7 = experiment: MTS antiproliferative assay; type: cell-based, human; details: 72 h
Method: (§1) After 72 h of incubation, 10 µL of MTS was added to each well. […] IC50 values were calculated from MTS analyses.

HeLa = experiment: MTS antiproliferative assay; type: cell-based, human; details: 72 h
Method: as §1

BJ-5ta = experiment: MTS assay on fibroblasts; type: cell-based; details: BJ-5ta human skin fibroblasts, 72 h
Method: as §1

BLM = experiment: MTS antiproliferative assay; type: cell-based, human; details: BLM; MTS, 72 h
Method: (§2) Cells were maintained in standard conditions with an atmosphere containing 5% CO2 at 37 °C.
as §1

HCT116 = experiment: MTS antiproliferative assay; type: cell-based, human; details: 72 h
Method: as §2, §1

MDA-MB-231 = experiment: MTS antiproliferative assay; type: cell-based, human; details: 72 h
Method: as §2, §1

Jurkat = experiment: MTS antiproliferative assay; type: cell-based, human; details: 72 h
Method: as §2, §1

[1] = tested on: Escherichia coli (E. coli) CCM 3988; experiment: Antibacterial activity, macrodilution method; type: cell-based; details: free ligands
Method: (§3) Cultures of bacteria (in Mueller-Hinton broth, MHB) and yeasts (in Sabouraud’s growth medium, SB) were incubated under shaking (250 rpm) at 37 °C. The growth of bacteria and yeasts was evaluated by measuring the absorbance of the growing cultures (A550) until the cultures reached the stationary growth phase. […] The final concentration of DMSO never exceeded 1.0 vol. % in the control or treated samples. […] The IC50 and MIC90 with respect to MIC80 values were evaluated from toxicity curves.

[2] = tested on: Candida parapsilosis ATCC 22019; experiment: Antifungal activity (yeast), macrodilution method; type: cell-based; details: C. parapsilosis
Method: as §3

[3] = tested on: Microsporum gypseum CCM F-8342; experiment: Antifungal activity (filamentous fungi), macrodilution on solidified PDA; type: cell-based; details: M.gypseum, read-out: IC50 and MIC100 (class symbol)
Method: (§4) Cultures of bacteria (in Mueller-Hinton broth, MHB) and yeasts (in Sabouraud’s growth medium, SB) were incubated under shaking (250 rpm) at 37 °C. The growth of bacteria and yeasts was evaluated by measuring the absorbance of the growing cultures (A550) until the cultures reached the stationary growth phase. […] During culturing, the diameters of growing fungal colonies were measured at regular intervals [71, 72]. […] The final concentration of DMSO never exceeded 1.0 vol. % in the control or treated samples. […] The IC50 and MIC90 with respect to MIC80 values were evaluated from toxicity curves.

[4] = tested on: Staphylococcus aureus CCM 3953; experiment: Antibacterial activity, macrodilution method; type: cell-based; details: S. aureus; free ligands
Method: as §3

[5] = tested on: Rhizopus oryzae CCM F-8284; experiment: Antifungal activity (filamentous fungi), macrodilution on solidified PDA; type: cell-based
Method: as §4

[6] = tested on: Alternaria alternata CCM F-128; experiment: as above; type: cell-based; details: A. alternata, read-out: IC50 and MIC100 (class symbol)
Method: as §4

A.flavus = experiment: Antifungal activity (filamentous fungi); type: cell-based; details: read-out: IC50 and MIC100 (class symbol)
Method: as §4

Candida albicans SC 5314 = experiment: Antifungal activity (yeast), macrodilution method; type: cell-based; details: C. albicans
Method: as §4

[7] = tested on: methicillin-resistant Staphylococcus aureus L12; experiment: Antibacterial activity, macrodilution method; type: cell-based; details: S. aureus L12; free ligands
Method: as §3

[8] = tested on: Staphylococcus epidermidis CCM 7221; experiment: Antibacterial activity, macrodilution method; type: cell-based; details: S.epidermidis; free ligands
Method: as §3

[9] = read-out: IC50 and MIC100 (class symbol)

| SMILES | IC50 (MCF-7) [µM] | IC50 (HeLa) [µM] | IC50 (BJ-5ta) [µM] | IC50 (BLM) [µM] | IC50 (HCT116) [µM] | IC50 (MDA-MB-231) [µM] | IC50 (Jurkat) [µM] | IC50 and MIC90 (class symbol) [1] | IC50 and MIC80 (class symbol) [2] | IC50 and MIC90 (class symbol) [4] | IC50 and MIC80 (class symbol) (Candida albicans SC 5314) | IC50 and MIC90 (class symbol) [7] | IC50 and MIC90 (class symbol) [8] | IC50 [3] [µM] | IC50 [5, 9] [µM] | IC50 [6] [µM] | IC50 (A.flavus) [µM] | further results |
| --- | --- | --- | --- | --- | --- | --- | --- | --- | --- | --- | --- | --- | --- | --- | --- | --- | --- | --- |
| O=[N+]([O-])[O-].[Ag+] [AgNO3, silver(I) nitrate] | 13.2 | 45.3 | 24.3 | 31.5 | 21.8 | 25.9 | 6.6 |  |  |  |  |  |  |  |  |  |  |  |
| C[C@H](N)C(=O)O [Ala, alanine, reference compound] |  |  |  |  |  |  |  | N (N- not active IC50 and MIC90 values > 2 mmol.l-1) | N (N- not active IC50 and MIC values > 2 mmol.l-1) | N (N- not active IC50 and MIC90 values > 2 mmol.l-1) | N (N- not active IC50 and MIC values > 2 mmol.l-1) | N (N- not active IC50 and MIC90 values > 2 mmol.l-1) | N (N- not active IC50 and MIC90 values > 2 mmol.l-1) |  |  |  |  | IC50 ([3]; Nannizzia gypsea, CCMF8342): > 2000 µM; IC50 ([5]; Rhizopus arrhizus, CCMF8284, read-out: IC50 and MIC100 (class symbol)): > 2000 µM; IC50 ([6]; Alternaria alternata, CCMF128): > 2000 µM; IC50 (A.flavus; Aspergillus flavus): > 2000 µM |
| NCC(=O)O [Gly, glycine, reference compound] |  |  |  |  |  |  |  | N (N- not active IC50 and MIC90 values > 2 mmol.l-1) | N (N- not active IC50 and MIC values > 2 mmol.l-1) | N (N- not active IC50 and MIC90 values > 2 mmol.l-1) | N (N- not active IC50 and MIC values > 2 mmol.l-1) | N (N- not active IC50 and MIC90 values > 2 mmol.l-1) | N (N- not active IC50 and MIC90 values > 2 mmol.l-1) | > 2000 | > 2000 | > 2000 | > 2000 |  |
| NCC(=O)N[C@@H](CC(=O)O)C(=O)O [H2GlyAsp, Glycyl-L-Aspartic acid, reference compound] (H-Gly-Asp-OH) | > 300 | > 300 | > 300 | > 300 | > 300 | > 300 | > 300 | N (N- not active IC50 and MIC90 values > 2 mmol.l-1) | N (N- not active IC50 and MIC values > 2 mmol.l-1) | N (N- not active IC50 and MIC90 values > 2 mmol.l-1) | N (N- not active IC50 and MIC values > 2 mmol.l-1) | N (N- not active IC50 and MIC90 values > 2 mmol.l-1) | N (N- not active IC50 and MIC90 values > 2 mmol.l-1) | > 2000 | > 2000 | > 2000 | > 2000 |  |
